Active and inactive are the calls of the source. No cut-off for these calls is given here.
Tests used:
[1] = molecular target: T1, von Hippel-Lindau disease tumor suppressor/Protein arginine N-methyltransferase 5 (Homo sapiens, UniProt O14744+P40337); assay: PROTAC activity at […]/VHL in human MDA-MB-468 cells assessed as relative protein level at 0.5 uM measured after 24 hrs by Western blot analysis; assay type: cell-based
Target sequence in this assay (O14744 whole entry, looked up): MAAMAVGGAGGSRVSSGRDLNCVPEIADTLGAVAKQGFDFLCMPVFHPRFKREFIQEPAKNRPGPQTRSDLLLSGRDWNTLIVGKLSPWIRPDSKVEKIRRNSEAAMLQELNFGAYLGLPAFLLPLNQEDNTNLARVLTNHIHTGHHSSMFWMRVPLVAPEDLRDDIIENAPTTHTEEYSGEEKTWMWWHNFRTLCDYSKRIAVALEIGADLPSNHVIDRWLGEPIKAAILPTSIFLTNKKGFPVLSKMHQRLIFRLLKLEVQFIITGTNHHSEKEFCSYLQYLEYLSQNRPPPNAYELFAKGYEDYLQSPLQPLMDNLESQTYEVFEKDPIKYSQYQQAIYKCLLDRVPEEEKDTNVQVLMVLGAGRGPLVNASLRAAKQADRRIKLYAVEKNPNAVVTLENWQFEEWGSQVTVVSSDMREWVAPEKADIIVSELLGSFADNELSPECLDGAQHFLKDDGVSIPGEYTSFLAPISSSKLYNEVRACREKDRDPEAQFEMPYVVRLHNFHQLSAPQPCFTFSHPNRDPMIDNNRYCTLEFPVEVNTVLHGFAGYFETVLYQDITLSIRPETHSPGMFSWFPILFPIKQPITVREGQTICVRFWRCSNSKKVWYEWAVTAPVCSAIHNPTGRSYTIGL
Target sequence in this assay (P40337 whole entry, looked up): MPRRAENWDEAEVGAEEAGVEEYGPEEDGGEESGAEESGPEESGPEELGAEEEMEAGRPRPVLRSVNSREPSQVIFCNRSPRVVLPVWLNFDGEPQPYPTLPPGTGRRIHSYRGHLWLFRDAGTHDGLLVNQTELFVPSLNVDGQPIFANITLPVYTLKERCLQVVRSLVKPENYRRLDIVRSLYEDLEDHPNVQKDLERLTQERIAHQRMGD

[2] = molecular target: T2, von Hippel-Lindau disease tumor suppressor/Methylosome protein WDR77 (Homo sapiens, UniProt Q9BQA1+P40337); assay: PROTAC activity at MEP50/VHL in human MDA-MB-468 cells assessed as relative protein level at 5 uM measured after 24 hrs by Western blot analysis; assay type: cell-based
Target sequence in this assay (P40337 whole entry, looked up): as above
Target sequence in this assay (Q9BQA1 whole entry, looked up): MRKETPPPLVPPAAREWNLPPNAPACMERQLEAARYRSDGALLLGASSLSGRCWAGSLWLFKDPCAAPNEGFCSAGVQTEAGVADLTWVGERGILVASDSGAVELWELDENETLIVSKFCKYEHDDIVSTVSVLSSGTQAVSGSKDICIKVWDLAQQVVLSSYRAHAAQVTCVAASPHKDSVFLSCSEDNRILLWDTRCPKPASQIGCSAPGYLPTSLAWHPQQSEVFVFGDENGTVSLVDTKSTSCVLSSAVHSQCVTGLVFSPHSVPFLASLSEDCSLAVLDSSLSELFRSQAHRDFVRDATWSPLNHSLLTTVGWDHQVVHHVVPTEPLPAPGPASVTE

[3] = molecular target: T1, von Hippel-Lindau disease tumor suppressor/Protein arginine N-methyltransferase 5; assay: PROTAC activity at PRMT5/VHL in human MDA-MB-468 cells assessed as degradation measured after 72 hrs by Western blot analysis; assay type: cell-based
Target sequence in this assay (O14744 whole entry): as the sequence (O14744 whole entry, looked up) above
Target sequence in this assay (P40337 whole entry): as the sequence (P40337 whole entry, looked up) above

[4] = molecular target: T2, von Hippel-Lindau disease tumor suppressor/Methylosome protein WDR77; assay: PROTAC activity at MEP50/VHL in human MDA-MB-468 cells assessed as degradation measured after 72 hrs by Western blot analysis relative to control; assay type: cell-based
Target sequence in this assay (Q9BQA1 whole entry): as the sequence (Q9BQA1 whole entry, looked up) above
Target sequence in this assay (P40337 whole entry): as the sequence (P40337 whole entry, looked up) above

[5] = molecular target: T2, von Hippel-Lindau disease tumor suppressor/Methylosome protein WDR77; assay: PROTAC activity at MEP50/VHL in human MDA-MB-468 cells assessed as maximal degradation measured after 72 hrs by Western blot analysis relative to control; assay type: cell-based
Target sequence in this assay (P40337 whole entry, looked up): as above
Target sequence in this assay (Q9BQA1 whole entry, looked up): as the sequence (Q9BQA1 whole entry, looked up) above

[6] = molecular target: T1, von Hippel-Lindau disease tumor suppressor/Protein arginine N-methyltransferase 5; assay: PROTAC activity at PRMT5/VHL in human MDA-MB-468 cells assessed as degradation at 2 uM by Western blot analysis; assay type: cell-based; settings: time 3-48 hrs
Target sequence in this assay (O14744 whole entry, looked up): as the sequence (O14744 whole entry, looked up) above
Target sequence in this assay (P40337 whole entry, looked up): as the sequence (P40337 whole entry, looked up) above

[7] = molecular target: T1, von Hippel-Lindau disease tumor suppressor/Protein arginine N-methyltransferase 5; assay: PROTAC activity at PRMT5/VHL in human MDA-MB-468 cells assessed as degradation pretreated with MLN4924 neddylation inhibitor followed by treated at 5 uM of compound after 24 hrs by Western blot analysis; assay type: cell-based
Target sequence in this assay (O14744 whole entry, looked up): as the sequence (O14744 whole entry, looked up) above
Target sequence in this assay (P40337 whole entry, looked up): as the sequence (P40337 whole entry, looked up) above

[8] = molecular target: T2, von Hippel-Lindau disease tumor suppressor/Methylosome protein WDR77; assay: PROTAC activity at MEP50/VHL in human MDA-MB-468 cells assessed as downregulation of MEP50 at 2 uM of compound after 24 hrs by mass spectrometry (MS)-based global proteomic study; assay type: cell-based
Target sequence in this assay (P40337 whole entry, looked up): as above
Target sequence in this assay (Q9BQA1 whole entry, looked up): as the sequence (Q9BQA1 whole entry, looked up) above

[9] = system: MDA-MB-468; assay: Cytotoxicity against human MDA-MB-468 cells assessed as cell viability measured after 7 days by CCK-8 assay; assay type: functional; settings: MDA-MB-468, 168 h, time 7 day
[10] = molecular target: T1, von Hippel-Lindau disease tumor suppressor/Protein arginine N-methyltransferase 5; assay: PROTAC activity at PRMT5/VHL in human MCF7 cells assessed as degradation at 5 uM after 3 days by Western blot analysis; assay type: cell-based; settings: time 3.0 day
Target sequence in this assay (O14744 whole entry, looked up): as the sequence (O14744 whole entry, looked up) above
Target sequence in this assay (P40337 whole entry, looked up): as the sequence (P40337 whole entry, looked up) above

[11] = molecular target: T2, von Hippel-Lindau disease tumor suppressor/Methylosome protein WDR77; assay: PROTAC activity at MEP50/VHL in human MCF7 cells assessed as degradation at 5 uM after 3 days by Western blot analysis; assay type: cell-based; settings: time 3.0 day
Target sequence in this assay (P40337 whole entry, looked up): as above
Target sequence in this assay (Q9BQA1 whole entry, looked up): as the sequence (Q9BQA1 whole entry, looked up) above

[12] = molecular target: T1, von Hippel-Lindau disease tumor suppressor/Protein arginine N-methyltransferase 5; assay: PROTAC activity at PRMT5/VHL in human MDA-MB-231 cells assessed as degradation at 0.5 uM after 3 days by Western blot analysis; assay type: cell-based; settings: time 3.0 day
Target sequence in this assay (O14744 whole entry, looked up): as the sequence (O14744 whole entry, looked up) above
Target sequence in this assay (P40337 whole entry, looked up): as the sequence (P40337 whole entry, looked up) above

[13] = system: MCF7; assay: Growth inhibition of human MCF7 cells assessed as cell viability measured after 5 days by CCK-8 assay; assay type: functional, cell-based; settings: time 5.0 day
[14] = system: BT-549; assay: Growth inhibition of human BT-549 cells assessed as cell viability measured after 5 days by CCK-8 assay; assay type: functional, cell-based; settings: time 5.0 day
[15] = molecular target: T2, von Hippel-Lindau disease tumor suppressor/Methylosome protein WDR77; assay: PROTAC activity at MEP50/VHL in human PC-3 cells assessed as degradation at 0.004 to 2.5 uM after 7 hrs by Western blot analysis; assay type: cell-based; settings: dose 0.004-2.5 µM
Target sequence in this assay (P40337 whole entry, looked up): as above
Target sequence in this assay (Q9BQA1 whole entry, looked up): as the sequence (Q9BQA1 whole entry, looked up) above

[16] = molecular target: T2, von Hippel-Lindau disease tumor suppressor/Methylosome protein WDR77; assay: PROTAC activity at MEP50/VHL in human PNT2 cells assessed as degradation at 0.5 to 5 uM after 3 days by Western blot analysis; assay type: cell-based; settings: dose 0.5-5 µM, time 3.0 day
Target sequence in this assay (P40337 whole entry, looked up): as the sequence (P40337 whole entry, looked up) above
Target sequence in this assay (Q9BQA1 whole entry, looked up): as the sequence (Q9BQA1 whole entry, looked up) above

[17] = Cmax in Swiss albino mouse plasma at 50 mg/kg, ip measured after 0.5 hrs by LC-MS/MS analysis; assay type: ADME, organism-based; settings: in vivo

## Cc1ncsc1-c1ccc([C@H](CC(=O)NCCOCCOCCOCCOCCOCCC(=O)N2CCC(Nc3cc(C(=O)NC[C@H](O)CN4CCc5ccccc5C4)ncn3)CC2)NC(=O)[C@@H]2C[C@@H](O)CN2C(=O)[C@@H](NC(=O)C2(F)CC2)C(C)(C)C)cc1
[1]
  Activity: Active
[2]
  Activity: Active
[3]
  DC50: 17.4 nM
[4]
  DC50: 11.3 nM
[5]
  Emax: 91.4%
[6]
  Activity: Time-dependent-effect
[7]
  Activity: inactive
[8]
  Activity: Active
[9]
  GI50: 5600 nM
[10]
  Activity: Active
[11]
  Activity: Active
[12]
  Activity: Active
[13]
  growth inhibition (GI): Active
[14]
  growth inhibition (GI): Active
[15]
  Activity: Active
[16]
  Activity: 100%
[17]
  Cmax: 17.5 µM
